Results reported in article PMC4773911 (Journal of the American Chemical Society, 2015).
Entries after “also recorded” stand apart in the source; their conditions may differ. Each block holds one compound with its values, some of them ahead of it.

What was measured:
[1] = target: T1, DAGL-α (Homo sapiens, UniProt Q9Y4D2); assay type: biochemical; conditions: pre-incubated at IC80 concentration; MB064 labeling; n=3
T1 sequence (Q9Y4D2 1-1042): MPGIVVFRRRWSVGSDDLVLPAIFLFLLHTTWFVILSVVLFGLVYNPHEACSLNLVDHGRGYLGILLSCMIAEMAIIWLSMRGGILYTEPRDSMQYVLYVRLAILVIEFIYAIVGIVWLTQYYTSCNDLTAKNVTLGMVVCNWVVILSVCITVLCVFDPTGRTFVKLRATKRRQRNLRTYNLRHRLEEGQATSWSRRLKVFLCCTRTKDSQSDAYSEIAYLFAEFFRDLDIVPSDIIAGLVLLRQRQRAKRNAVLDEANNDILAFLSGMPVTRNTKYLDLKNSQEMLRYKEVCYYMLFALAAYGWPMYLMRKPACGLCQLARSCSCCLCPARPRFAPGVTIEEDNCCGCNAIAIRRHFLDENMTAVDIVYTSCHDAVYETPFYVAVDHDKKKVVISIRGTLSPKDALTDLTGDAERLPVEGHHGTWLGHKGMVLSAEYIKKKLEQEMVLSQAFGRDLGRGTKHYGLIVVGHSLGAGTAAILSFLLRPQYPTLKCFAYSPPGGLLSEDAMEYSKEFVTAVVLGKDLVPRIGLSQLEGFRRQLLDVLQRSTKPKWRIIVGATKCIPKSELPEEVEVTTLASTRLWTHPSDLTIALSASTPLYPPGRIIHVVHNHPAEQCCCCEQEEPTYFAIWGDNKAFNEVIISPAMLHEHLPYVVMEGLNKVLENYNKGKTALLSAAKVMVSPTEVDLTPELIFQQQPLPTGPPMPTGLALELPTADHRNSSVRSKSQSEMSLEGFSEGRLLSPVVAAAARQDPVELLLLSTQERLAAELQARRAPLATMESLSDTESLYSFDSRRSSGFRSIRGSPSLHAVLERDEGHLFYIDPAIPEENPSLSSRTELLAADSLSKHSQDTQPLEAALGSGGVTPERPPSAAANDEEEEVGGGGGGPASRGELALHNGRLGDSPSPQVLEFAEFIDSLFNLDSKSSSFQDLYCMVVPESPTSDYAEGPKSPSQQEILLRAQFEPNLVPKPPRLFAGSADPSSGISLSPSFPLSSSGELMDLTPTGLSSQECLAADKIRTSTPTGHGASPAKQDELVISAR

[2] = test system: mouse liver; conditions: cited from earlier work
[3] = target: T2, FAAH (Mus musculus, UniProt O08914); assay: competitive ABPP with TAMRA-FP in mouse brain membrane proteome, FAAH labeling; assay type: binding
T2 sequence (O08914 1-579): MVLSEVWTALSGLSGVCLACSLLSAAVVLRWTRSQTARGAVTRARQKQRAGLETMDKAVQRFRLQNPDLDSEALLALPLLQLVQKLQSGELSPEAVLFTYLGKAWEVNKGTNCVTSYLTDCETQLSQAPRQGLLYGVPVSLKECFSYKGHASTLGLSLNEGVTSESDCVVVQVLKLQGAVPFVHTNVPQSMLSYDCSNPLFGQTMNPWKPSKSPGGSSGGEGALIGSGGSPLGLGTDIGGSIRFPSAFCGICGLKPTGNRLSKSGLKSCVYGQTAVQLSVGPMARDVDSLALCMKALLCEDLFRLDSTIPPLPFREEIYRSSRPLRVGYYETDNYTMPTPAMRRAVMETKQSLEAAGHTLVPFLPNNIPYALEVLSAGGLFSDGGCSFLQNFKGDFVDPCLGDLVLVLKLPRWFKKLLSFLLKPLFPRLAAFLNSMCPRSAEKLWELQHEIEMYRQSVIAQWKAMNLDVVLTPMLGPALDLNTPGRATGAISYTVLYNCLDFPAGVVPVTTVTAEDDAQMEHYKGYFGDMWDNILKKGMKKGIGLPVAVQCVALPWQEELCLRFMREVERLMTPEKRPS

[4] = target: T1, DAGL-α; assay: real-time, fluorescence-based
[5] = target: T1, DAGL-α; assay: colorimetric assay using para-nitrophenylbutyrate as a surrogate substrate; assay type: biochemical
[6] = target: T1, DAGL-α; assay: radiometric assay using 1-[14C]oleoyl-2-arachidonoyl-sn-glycerol as substrate; assay type: biochemical; conditions: 1-[14C]oleoyl-2-arachidonoyl-sn-glycerol 20 μm; n=2
[7] = target: T3, hDAGL-β (Homo sapiens, UniProt Q8NCG7); assay: competitive ABPP with MB064 on membranes of hDAGL-β transfected HEK293T cells; assay type: binding; conditions: n=3
T3 sequence (Q8NCG7 1-672): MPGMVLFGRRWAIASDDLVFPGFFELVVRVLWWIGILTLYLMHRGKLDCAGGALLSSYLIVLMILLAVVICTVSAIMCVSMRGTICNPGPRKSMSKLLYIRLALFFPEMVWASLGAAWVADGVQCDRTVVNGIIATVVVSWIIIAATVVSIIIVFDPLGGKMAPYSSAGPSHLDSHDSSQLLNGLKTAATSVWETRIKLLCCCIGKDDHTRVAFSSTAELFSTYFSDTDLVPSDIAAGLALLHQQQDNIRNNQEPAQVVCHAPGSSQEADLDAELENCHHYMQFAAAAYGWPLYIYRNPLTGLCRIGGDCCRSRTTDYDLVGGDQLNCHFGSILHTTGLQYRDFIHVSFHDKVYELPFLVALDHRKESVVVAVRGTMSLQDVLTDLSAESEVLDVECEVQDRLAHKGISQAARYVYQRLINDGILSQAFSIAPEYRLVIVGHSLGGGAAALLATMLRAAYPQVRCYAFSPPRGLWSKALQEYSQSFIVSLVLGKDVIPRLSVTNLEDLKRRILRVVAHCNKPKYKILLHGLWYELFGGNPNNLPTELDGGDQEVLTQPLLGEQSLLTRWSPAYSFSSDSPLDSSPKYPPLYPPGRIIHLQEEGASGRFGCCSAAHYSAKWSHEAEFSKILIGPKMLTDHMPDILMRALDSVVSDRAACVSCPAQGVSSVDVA

[8] = target: T3, hDAGL-β; assay: biochemical assay with para-nitrophenylbutyrate as a surrogate substrate; conditions: n=4
[9] = test system: endogenously expressed DAGL-β; assay: competitive ABPP with MB064 in mouse spleen membrane proteome; assay type: binding; conditions: 10 μM, MB064 1.0 μM
[10] = test system: serine hydrolases; assay type: binding, mouse
[11] = test system: serine hydrolases; assay type: binding, mouse; conditions: 10 μM, 30 min
[12] = test system: DAGL-α; assay type: binding, mouse; conditions: 10 μM
[13] = target: T4, recombinant human ABHD6 (Homo sapiens, UniProt Q9BV23); assay: biochemical assay using recombinant human ABHD6
T4 sequence (Q9BV23 1-337): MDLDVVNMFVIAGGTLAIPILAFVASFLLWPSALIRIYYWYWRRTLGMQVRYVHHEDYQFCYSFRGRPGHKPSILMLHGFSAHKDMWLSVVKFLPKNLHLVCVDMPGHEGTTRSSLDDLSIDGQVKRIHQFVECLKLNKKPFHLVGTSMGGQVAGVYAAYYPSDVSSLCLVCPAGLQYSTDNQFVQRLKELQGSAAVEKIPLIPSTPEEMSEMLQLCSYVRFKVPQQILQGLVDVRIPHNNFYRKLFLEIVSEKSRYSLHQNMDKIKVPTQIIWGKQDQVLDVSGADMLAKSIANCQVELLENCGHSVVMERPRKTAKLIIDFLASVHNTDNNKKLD

[14] = target: T5, recombinant human MAGL (Homo sapiens, UniProt Q99685); assay: biochemical assay using recombinant human MAGL
T5 sequence (Q99685 1-303): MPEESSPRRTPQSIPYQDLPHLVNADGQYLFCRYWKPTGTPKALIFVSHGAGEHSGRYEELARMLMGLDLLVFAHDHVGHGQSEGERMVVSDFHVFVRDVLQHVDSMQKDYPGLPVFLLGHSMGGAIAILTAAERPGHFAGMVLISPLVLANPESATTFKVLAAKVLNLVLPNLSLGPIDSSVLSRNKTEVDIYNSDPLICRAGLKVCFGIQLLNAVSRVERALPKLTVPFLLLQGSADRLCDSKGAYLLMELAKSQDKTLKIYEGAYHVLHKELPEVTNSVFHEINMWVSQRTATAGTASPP

[15] = target: cannabinoid CB1 receptor (Homo sapiens, UniProt P21554); assay: cannabinoid CB1 receptor radioligand displacement assay; assay type: binding
[16] = target: T6, endogenous DAGL-β (Mus musculus, UniProt Q91WC9); assay: competitive ABPP with MB064 in Neuro2A proteome; assay type: binding; conditions: Neuro2A proteome in vitro, n=3
T6 sequence (Q91WC9 1-669): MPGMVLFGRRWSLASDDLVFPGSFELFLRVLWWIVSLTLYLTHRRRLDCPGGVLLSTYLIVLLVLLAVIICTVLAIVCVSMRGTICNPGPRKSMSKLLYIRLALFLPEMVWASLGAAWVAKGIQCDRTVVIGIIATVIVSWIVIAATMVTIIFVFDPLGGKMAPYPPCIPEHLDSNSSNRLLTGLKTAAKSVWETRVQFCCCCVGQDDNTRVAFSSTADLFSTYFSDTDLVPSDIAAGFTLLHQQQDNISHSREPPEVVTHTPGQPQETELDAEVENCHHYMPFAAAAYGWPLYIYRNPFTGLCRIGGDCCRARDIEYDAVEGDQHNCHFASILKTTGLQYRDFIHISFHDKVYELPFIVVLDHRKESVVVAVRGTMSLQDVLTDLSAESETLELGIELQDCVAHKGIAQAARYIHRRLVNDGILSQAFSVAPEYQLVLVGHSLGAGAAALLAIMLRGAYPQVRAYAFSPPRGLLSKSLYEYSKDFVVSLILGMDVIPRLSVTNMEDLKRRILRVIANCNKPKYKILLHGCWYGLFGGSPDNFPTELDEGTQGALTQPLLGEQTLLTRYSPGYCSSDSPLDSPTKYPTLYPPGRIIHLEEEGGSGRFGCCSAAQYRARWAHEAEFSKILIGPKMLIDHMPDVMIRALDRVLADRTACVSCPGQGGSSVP

[17] = test system: ABHD6; assay: ABPP in Neuro2A proteome, ABHD6; assay type: binding, mouse
[18] = target: T2, FAAH; assay: ABPP in Neuro2A proteome, FAAH; assay type: binding
[19] = test system: Neuro2A cells; assay: targeted lipidomics after in situ treatment of Neuro2A cells; assay type: cell-based, mouse; conditions: in situ 1h, 37 °C, n=4
[20] = test system: human PC3 cells; assay: lipid levels in human PC3 cells; assay type: cell-based
[21] = test system: CA1 pyramidal neurons in hippocampal slices; assay: depolarization-induced suppression of inhibition; assay type: cell-based, mouse; conditions: 10 μM

cannabinoid CB1 receptor, sequence (P21554 whole entry): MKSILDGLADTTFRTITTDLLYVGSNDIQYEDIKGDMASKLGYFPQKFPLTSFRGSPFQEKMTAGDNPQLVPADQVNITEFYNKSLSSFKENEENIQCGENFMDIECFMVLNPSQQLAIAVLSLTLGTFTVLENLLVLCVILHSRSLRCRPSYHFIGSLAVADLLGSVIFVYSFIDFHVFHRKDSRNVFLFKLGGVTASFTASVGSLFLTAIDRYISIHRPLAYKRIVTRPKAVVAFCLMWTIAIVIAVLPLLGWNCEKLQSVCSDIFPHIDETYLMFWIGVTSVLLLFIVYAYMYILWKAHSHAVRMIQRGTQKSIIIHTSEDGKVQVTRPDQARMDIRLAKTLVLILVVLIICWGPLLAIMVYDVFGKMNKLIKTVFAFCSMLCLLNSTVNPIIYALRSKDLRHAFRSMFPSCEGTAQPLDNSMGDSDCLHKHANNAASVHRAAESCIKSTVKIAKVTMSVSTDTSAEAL

SMILES: O=C(N1CCCCC1Cc1ccccc1)n1cc(-c2ccc(-c3ccccc3)cc2)nn1 (centres unmarked) [KT-109, reference compound]
recovery of DAGL-α activity after size exclusion chromatography [1]: No recovery | arachidonic acid levels [2]: reduction

IC50 [3]: 15.8 nM | IC50 [4]: 501 nM
SMILES: O=C(CCCCCc1ccccc1)c1nc2ncccc2o1 [LEI104]

SMILES: Cc1ccc(-c2cnc3nc(C(=O)CCCCCc4ccccc4)oc3c2)cc1 [LEI105]
fold more potent than LEI104 ([5]; para-nitrophenylbutyrate assay, vs LEI104): ~10 fold | pIC50 on human DAGL-α ([5]; para-nitrophenylbutyrate surrogate substrate, n=4): 8.5 ± 0.06 | pIC50, radiometric assay [6]: 6.6 | pIC50 of hDAGL-β labeling by MB064 [7]: 7.4 ± 0.07 | pIC50 on human DAGL-β [8]: 8.1 ± 0.07 | inhibition of endogenous DAGL-β labeling/activity in spleen [9]: could be inhibited; also recorded: can block labeling | recovery of DAGL-α activity after size exclusion chromatography [1]: reversibility | inhibition of labeling of other bands (TAMRA-FP and MB064) ([10]; 10 μM): did not inhibit labeling of any other band | block of FAAH labeling ([3]; up to a concentration of 10 μM, TAMRA-FP, n=3): did not block FAAH labeling | reduction of labeling of the detected serine hydrolases, except DAGL-α [11]: ≤ 20% | reduction of DAGL-α labeling [12]: over 70% | pKi on ABHD6 [13]: < 5 | pKi on MAGL [14]: < 5 | displacement of 3H-CP55940 from the CB1 receptor ([15]; 10 μM): did not displace | pKi on cannabinoid CB1 receptor ([15]; radioligand displacement): < 5 | pIC50 of DAGL-β labeling [16]: 7.3 ± 0.07 | inhibition of ABHD6 [17]: no inhibition | inhibition of FAAH [18]: no inhibition | cellular 2-AG levels [19]: concentration-dependent reduction; also recorded: dose dependently decreased | cellular anandamide (AEA) levels [19]: unaffected; also recorded: constant | 2-AG levels [20]: reduced | arachidonic acid levels [20]: reduced | substrate levels of DAGL (DAG species) [20]: no change | DSI in hippocampal slices (in words) [21]: reduced | amplitude of stimulus-evoked inhibitory post-synaptic currents (IPSC) ([21]; pre-incubation and continuous application): 271 ± 22 pA | DSI, reduction in IPSC amplitude averaged over the first 15 sec after induction ([21]; n=15, p<0.05 vs control): 18 ± 7% | fold increase compared to LEI104 ([4]; natural substrate assay): 40 fold

SMILES: CCCCCCCCCCC[C@@H](C[C@@H]1OC(=O)[C@H]1CCCCCC)OC(=O)[C@@H](NC=O)[C@@H](C)CC [OMDM-188, reference compound]
number of serine hydrolases whose labeling was blocked ([10]; 1 μM, including ABHD6 and ABHD12): at least 4
